According to patent US11066425B1, “Oxo-substituted compound” (SUMITOMO DAINIPPON PHARMA CO., LTD., priority 2018, dated 2021):
Where a name gives a salt, the structure may show the parent alone.

Test system: β-lactamase producing bacteria
Experiment: Test Example 1: MIC of meropenem (MEPM) combined with test compound at fixed 4 μg/mL, broth microdilution
Assay type: cell-based
Details: relative to MEPM alone
Method: Test Example 1: Evaluation of Minimum Inhibitory Concentration (MIC) of MEPM Against β-Lactamase Producing Bacteria
To evaluate the β-lactamase inhibitory activity of test compounds, the effect of combination of a test compound and a β-lactam agent against β-lactamase producing bacteria was evaluated. Meropenem (MEPM) was used as a β-lactam antimicrobial agent. The minimum inhibitory concentration (MIC) of MEPM against β-lactamase producing bacteria when a test compound was added at a fixed concentration (4 μg/mL) was measured by broth microdilution method (common ratio: 2). MIC of MEPM decreasing to less than 1/32 in combination with a test compound is indicated by A, decreasing from 1/32 to 1/16 is indicated by B, decreasing from ⅛ to ¼ is indicated by C, and decreasing to ½ or others are indicated by D. “-” represents untested cases.

SMILES	Decrease of MIC of MEPM in combination with a test compound, E. coli ATCC BAA-2340 (KPC)	Decrease of MIC of MEPM in combination with a test compound, K. pneumoniae ATCC BAA-2344 (KPC)	Decrease of MIC of MEPM in combination with a test compound, K. pneumoniae ATCC BAA-2524 (OXA-48)
O=C(O)c1c(OC2CN(C(=O)c3ccccc3)C2)ccc2c1O[B-](O)(O)CC2 [Example 11, 8-[(1-benzoylazetidin-3-yl)oxy]-4,4-dihydroxy-5-oxa-4-boranuidabicyclo[4.4.0]deca-l(6),7,9-triene-7-carboxylic acid disodium salt]	A (MIC of MEPM decreasing to less than 1/32 in combination with a test compound is indicated by A)	B (decreasing from 1/32 to 1/16 is indicated by B)	B (decreasing from 1/32 to 1/16 is indicated by B)
N[C@H](Cc1cnc[nH]1)C(=O)N1CC(Oc2ccc3c(c2C(=O)O)O[B-](O)(O)CC3)C1 [Example 27, 8-[(1-D-histidylazetidin-3-yl)oxy]-4,4-dihydroxy-5-oxa-4-boranuidabicyclo[4.4.0]deca-l(6),7,9-triene-7-carboxylic acid disodium salt]		A (MIC of MEPM decreasing to less than 1/32 in combination with a test compound is indicated by A)	B (decreasing from 1/32 to 1/16 is indicated by B)
Cl.O=C(O)c1c(OC2CN(C(=O)c3ccccn3)C2)ccc2c1OB(O)CC2 [Example 6, 2-hydroxy-7-{[1-(pyridine-2-carbonyl)azetidin-3-yl]oxy}-3,4-dihydro-2H-1,2-benzoxaborinine-8-carboxylic acid hydrochloride]	A (MIC of MEPM decreasing to less than 1/32 in combination with a test compound is indicated by A)	A (MIC of MEPM decreasing to less than 1/32 in combination with a test compound is indicated by A)	B (decreasing from 1/32 to 1/16 is indicated by B)
CON=C(C(=O)N1CC(Oc2ccc3c(c2C(=O)O)OB(O)CC3)C1)c1csc(N)n1 [Example 5, 7-({1-[(2-amino-1,3-thiazol-4-yl)(methoxyimino)acetyl]azetidin-3-yl}oxy)-2-hydroxy-3,4-dihydro-2H-1,2-benzoxaborinine-8-carboxylic acid]	A (MIC of MEPM decreasing to less than 1/32 in combination with a test compound is indicated by A)	B (decreasing from 1/32 to 1/16 is indicated by B)	C (decreasing from ⅛ to ¼ is indicated by C)
NC(C(=O)N1CC(Oc2ccc3c(c2C(=O)O)O[B-](O)(O)CC3)C1)c1cnc[nH]1 (stereo not shown) [Example 19, 8-({1-[amino(1H-imidazol-5-yl)acetyl]azetidin-3-yl}oxy)-4,4-dihydroxy-5-oxa-4-boranuidabicyclo[4.4.0]deca-l(6),7,9-triene-7-carboxylic acid disodium salt]	A (MIC of MEPM decreasing to less than 1/32 in combination with a test compound is indicated by A)	A (MIC of MEPM decreasing to less than 1/32 in combination with a test compound is indicated by A)	B (decreasing from 1/32 to 1/16 is indicated by B)
O=C(O)c1c(OC2CN(C(=O)Cn3cnnn3)C2)ccc2c1O[B-](O)(O)CC2 [Example 23, 4,4-dihydroxy-8-({1-[(1H-tetrazol-1-yl)acetyl]azetidin-3-yl}oxy)-5-oxa-4-boranuidabicyclo[4.4.0]deca-l(6),7,9-triene-7-carboxylic acid disodium salt]		A (MIC of MEPM decreasing to less than 1/32 in combination with a test compound is indicated by A)	B (decreasing from 1/32 to 1/16 is indicated by B)
